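Growth conditions: 96-well plates. Treatment: test compound, 48 hours, 5 concentrations. Analysis: linear interpolation between bracketing concentrations; unreached endpoints set to highest concentration. Abbreviation: GI50, concentration required for 50% inhibition of growth. At the TGI there is no net growth.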

Test systems include DLD-1 colon; DMS 114 small cell lung; LXFL 529 NSCLC; MCF7 breast; MDA-MB-435; SNB-78 CNS; T-47D breast; BT-549 breast; MDA-MB-231 breast; PC-3 prostate.
What all share (assay): inhibition of tumour cell growth, NCI panel, 48 h

In the case of `CN1C(c2ccccc2)CC(=NO)CC1c1ccccc1` (stereo unspecified), the TGI in the assay with DLD-1 colon, in the assay with DMS 114 small cell lung, with LXFL 529 NSCLC and in the assay with SNB-78 CNS was > 100 µM each time. Moreover, the GI50 with MCF7 breast is 44.3 µM; with MDA-MB-435, 61 µM; with T-47D breast, 46.4 µM.

Regarding `Cc1ccc(NC(=O)CCc2nnc3s/c(=C\C=C\c4ccccc4)c(=O)n23)cc1`, the TGI in the assay with BT-549 breast, in the assay on DLD-1 colon, in the assay with DMS 114 small cell lung, in the assay on LXFL 529 NSCLC, in the assay with MCF7 breast and in the assay on MDA-MB-231 breast was > 100 µM each time. Besides, the TGI with MDA-MB-435 was > 100 µM; in the assay on PC-3 prostate, > 100 µM; with SNB-78 CNS it was > 100 µM; with T-47D breast it was > 31.6 µM.

Consider `CCCC(=O)Oc1ccc(/C=N/NC(N)=S)nc1`, for which the TGI in the assay on DLD-1 colon, with DMS 114 small cell lung, with LXFL 529 NSCLC and in the assay on SNB-78 CNS was > 100 µM throughout.

Take `NCCCNCc1c2ccccc2c(CNCCCN)c2ccccc12`: the TGI was > 100 µM with DLD-1 colon, 37.8 µM in the assay on DMS 114 small cell lung, 24.5 µM in the assay on LXFL 529 NSCLC and 60.1 µM in the assay on SNB-78 CNS.

Take `CCCC[C@H](CCc1ccccc1)N(C(=O)OC)N1CCC[C@H]1COC`: the TGI with DLD-1 colon came to 34.8 µM; in the assay on DMS 114 small cell lung, 30.2 µM; with LXFL 529 NSCLC, 39.6 µM; in the assay with SNB-78 CNS, 47.3 µM.

Take `Nc1ccc(C(=O)CC2(O)C(=O)Nc3ccccc32)cc1` (stereo unspecified): the TGI with DLD-1 colon, in the assay with DMS 114 small cell lung, in the assay on LXFL 529 NSCLC and in the assay on SNB-78 CNS was > 100 µM each time.

Consider `Clc1ccc(-c2nnc(-c3nn(-c4ccccc4)c4nc5ccccc5nc34)o2)cc1`, for which the TGI in the assay on DLD-1 colon, in the assay with DMS 114 small cell lung, in the assay with LXFL 529 NSCLC and in the assay on SNB-78 CNS was > 100 µM each time.

For the compound `CCCCN(C)CC(C(C)=O)C(c1ccccc1)c1c(O)c2ccccc2oc1=O` (stereo unspecified), the TGI with DLD-1 colon, with DMS 114 small cell lung, with LXFL 529 NSCLC and in the assay on SNB-78 CNS was > 100 µM each time.

With `CC(C)(C)OC(=O)NC(Cc1ccccc1)C(=S)N1CCCC1` (stereo unspecified), the TGI in the assay on DLD-1 colon, with DMS 114 small cell lung, with LXFL 529 NSCLC and with SNB-78 CNS was > 100 µM throughout.

As to `C/C(=N\NC(=O)c1ccccc1O)c1c(O)cc(C)oc1=O`, the TGI in the assay with DLD-1 colon, with DMS 114 small cell lung, in the assay with LXFL 529 NSCLC and with SNB-78 CNS was > 100 µM in each case.

For the compound `Cn1c(=O)nc2n(-c3ccc(F)c(F)c3)c3ccccc3nc-2c1=O`, the TGI in the assay with DLD-1 colon was determined as 85.3 µM; in the assay with DMS 114 small cell lung it was 18 µM; in the assay on LXFL 529 NSCLC, 64.9 µM; in the assay with SNB-78 CNS, 54.6 µM.

As to `Cc1ccc(NC(=O)C(=O)C2C(=O)NC(=O)NC2=O)c(C)c1`, the TGI with DLD-1 colon, with DMS 114 small cell lung, in the assay with LXFL 529 NSCLC and in the assay on SNB-78 CNS was > 100 µM in each case.

As to `COc1ccc2c(c1)c1ccc3c(c1n2C)C(=O)C=CC3=O`, the TGI with BT-549 breast came to 10.3 µM; in the assay on DLD-1 colon it was 20.9 µM; in the assay on DMS 114 small cell lung it was 47.4 µM; with LXFL 529 NSCLC, 30.2 µM; in the assay on MCF7 breast it was 15.5 µM; in the assay on MDA-MB-231 breast, 12.1 µM. In addition, the TGI came out at 22.7 µM with MDA-MB-435, 26.2 µM in the assay with PC-3 prostate, 45.5 µM in the assay with SNB-78 CNS and 6.25 µM with T-47D breast.

As to `NC1=C(O)/C(=N/NS(=O)(=O)c2ccccc2)C(c2ccc3c(c2)OCO3)O1` (stereo unspecified), the TGI in the assay with DLD-1 colon, in the assay on DMS 114 small cell lung, in the assay on LXFL 529 NSCLC and in the assay on SNB-78 CNS was > 100 µM throughout.

The record behind these values is PubChem BioAssay (NCI).
